# Laboratory results from patent US20250376483A1, “PRODRUGS OF PAN-KRAS INHIBITORS” (Mirati Therapeutics, Inc., priority 2022, published 2025).
# Tests used:
# [1] = Whole Blood Stability Assay (mouse whole blood); assay type: in vitro ADME; details: CD-1 mouse blood, EDTA-K2, final conc. 2 μM, 37° C., 0-120 min; for half-life at 2 μM: male, fresh whole blood, read-out: Mouse Whole Blood Stability t1/2
# In short: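 Compound at 2 μM final was incubated at 37 °C in fresh EDTA-K2 blood from male CD-1 mice. Samples at 0, 10, 30, 60 and 120 min were protein-precipitated with acetonitrile and analysed by LC-MS/MS. % remaining was derived from analyte/internal-standard peak area ratios.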
# [2] = Plasma Stability Assay (human plasma); assay type: in vitro ADME; details: both sexes; pooled human plasma, heparin, final conc. 2 μM, 37° C., 0-120 min; read-out: Human Plasma Stability t1/2
# In short: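 Compound at 2 μM final in pooled heparinised plasma (3 male, 3 female), incubated at 37° C with sampling at 0, 10, 30, 60 and 120 min. Acetonitrile stop, LC-MS/MS; % remaining from analyte/internal-standard peak area ratio relative to T0.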
SMILES,half-life at 2 μM [1] [min],half-life at 2 μM [2] [min],Mouse Whole Blood Stability t1/2 [1] [min]
"CCc1c(F)ccc2cc(OC(C)OC(=O)N(C)C)cc(-c3ncc4c(N5C[C@@H]6C[C@H](C5)[C@H](O)C6)nc(OC[C@@]56CCCN5C[C@H](F)C6)nc4c3F)c12 (stereo partly drawn) [Example 22, 1-((5-ethyl-6-fluoro-4-(8-fluoro-2-(((2R,7aS)-2-fluorotetrahydro-1H-pyrrolizin-7a(5H)-yl)methoxy)-4-((1R,5R,6R)-6-hydroxy-3-azabicyclo[3.2.1]octan-3-yl)pyrido[4,3-d]pyrimidin-7-yl)naphthalen-2-yl)oxy)ethyl dimethylcarbamate]",> 289,> 289,–
"CCc1c(F)ccc2cc(OC(=O)OC)cc(N3CCc4c(nc(OC[C@@]56CCCN5C[C@H](F)C6)nc4N4CCC[C@]5(C4)NC(=O)NC5=O)C3)c12 [Example 30, 4-(4-((R)-2,4-dioxo-1,3,7-triazaspiro[4.5]decan-7-yl)-2-(((2R,7aS)-2-fluorotetrahydro-1H-pyrrolizin-7a(5H)-yl)methoxy)-5,8-dihydropyrido[3,4-d]pyrimidin-7(6H)-yl)-5-ethyl-6-fluoronaphthalen-2-yl methyl carbonate]",–,27,1
"CCc1c(F)ccc2cc(OC(=O)N3CCOCC3)cc(N3CCc4c(nc(OC[C@@]56CCCN5C[C@H](F)C6)nc4N4CCC[C@]5(C4)NC(=O)NC5=O)C3)c12 [Example 60, 4-(4-((R)-2,4-dioxo-1,3,7-triazaspiro[4.5]decan-7-yl)-2-(((2R,7aS)-2-fluorotetrahydro-1H-pyrrolizin-7a(5H)-yl)methoxy)-5,8-dihydropyrido[3,4-d]pyrimidin-7(6H)-yl)-5-ethyl-6-fluoronaphthalen-2-yl morpholine-4-carboxylate]",79,> 289,–
"CCC(=O)Oc1cc(-c2ncc3c(N4C[C@@H]5C[C@H](C4)[C@H](O)C5)nc(OC[C@@]45CCCN4C[C@H](F)C5)nc3c2F)c2c(CC)c(F)ccc2c1 [Example 2, 5-ethyl-6-fluoro-4-(8-fluoro-2-(((2R,7aS)-2-fluorotetrahydro-1H-pyrrolizin-7a(5H)-yl)methoxy)-4-((1R,5R,6R)-6-hydroxy-3-azabicyclo[3.2.1]octan-3-yl)pyrido[4,3-d]pyrimidin-7-yl)naphthalen-2-yl propionate]",–,13,1
"CCc1c(F)ccc2cc(OC(=O)N3CCCC3)cc(N3CCc4c(nc(OC[C@@]56CCCN5C[C@H](F)C6)nc4N4CCC[C@]5(C4)NC(=O)NC5=O)C3)c12 [Example 43, 4-(4-((R)-2,4-dioxo-1,3,7-triazaspiro[4.5]decan-7-yl)-2-(((2R,7aS)-2-fluorotetrahydro-1H-pyrrolizin-7a(5H)-yl)methoxy)-5,8-dihydropyrido[3,4-d]pyrimidin-7(6H)-yl)-5-ethyl-6-fluoronaphthalen-2-yl pyrrolidine-1-carboxylate]",> 289,> 289,–
"CCc1c(F)ccc2cc(OC(=O)C3CCCCC3)cc(-c3ncc4c(N5C[C@@H]6C[C@H](C5)[C@H](O)C6)nc(OC[C@@]56CCCN5C[C@H](F)C6)nc4c3F)c12 [Example 21, 5-ethyl-6-fluoro-4-(8-fluoro-2-(((2R,7aS)-2-fluorotetrahydro-1H-pyrrolizin-7a(5H)-yl)methoxy)-4-((1R,5R,6R)-6-hydroxy-3-azabicyclo[3.2.1]octan-3-yl)pyrido[4,3-d]pyrimidin-7-yl)naphthalen-2-yl cyclohexanecarboxylate]",–,41,1
